Experimental data: ChEMBL document CHEMBL3808304, “Design, Synthesis, and Biological Evaluation of Indoline and Indole Derivatives as Potent and Selective α1A-Adrenoceptor Antagonists” (J Med Chem, 2016)

Assays:
Format in all cases: ADME, organism-based
[1] = Tmax in rat at 20 mg/kg, po; settings: in vivo
[2] = Tmax in rat at 10 mg/kg, iv; settings: in vivo
[3] = Cmax in rat at 20 mg/kg, po; parameters: dose 20 mg/kg, route oral; settings: in vivo
[4] = Cmax in rat at 10 mg/kg, iv; parameters: dose 10 mg/kg, route intravenous; settings: in vivo
[5] = AUC (0 to infinity) in rat at 20 mg/kg, po; parameters: dose 20 mg/kg, route oral, time infinity; settings: in vivo
[6] = AUC (0 to infinity) in rat at 10 mg/kg, iv; parameters: dose 10 mg/kg, time infinity, route intravenous; settings: in vivo
[7] = MRT in rat at 20 mg/kg, po; settings: in vivo
[8] = MRT in rat at 10 mg/kg, iv; settings: in vivo
[9] = Half life in rat at 20 mg/kg, po; settings: in vivo
[10] = Half life in rat at 10 mg/kg, iv; settings: in vivo
[11] = Apparent clearance in rat at 10 mg/kg, iv; settings: in vivo, read-out: CL(app) (converted)
[12] = Oral bioavailability in rat at 20 mg/kg; settings: in vivo

Row | SMILES | Tmax [1] [h] | Tmax [2] [min] | Cmax [3] [ng/mL] | Cmax [4] [ng/mL] | AUC(0-inf) [5] [ng·h/mL] | AUC(0-inf) [6] [ng·h/mL] | MRT [7] [h] | MRT [8] [h] | half-life [9] [h] | half-life [10] [h] | clearance [11] [mL/min/kg] | bioavailability [12] [%]
1 | C[C@H](Cc1cc2c(c(C(N)=O)c1)N(CCCO)CC2)NCCOc1cc(Cl)ccc1OCC(F)(F)F | 4 | 4.98 | 152 | 3000 | 1700 | 3510 | 6.22 | 2.34 | 4.67 | 1.63 | 47.5 | 24.3
2 | Cc1ccc(OCC(F)(F)F)c(OCCN[C@H](C)Cc2cc(C(N)=O)c3c(ccn3CCCO)c2)c1 | 0.5 | 4.98 | 109 | 2430 | 613 | 4400 | 3.54 | 2.94 | 1.22 | 1.1 | 37.9 | 7
